# Assay results reported in article PMC11593696, “Discovery of Potent Benzothiazole Inhibitors of Oxidoreductase NQO2, a Target for Inflammation and Cancer” (International Journal of Molecular Sciences, 2024).
# Read-outs that look alike come from different tables or passages of the source.
# Key:
# recombinant human NQO2 = target: T1, recombinant human NQO2 (Homo sapiens, UniProt P16083); test: NQO2 enzyme inhibition assay (DCPIP substrate, NRH or EPR co-substrate); assay type: biochemical
# T1 sequence (P16083 1-231): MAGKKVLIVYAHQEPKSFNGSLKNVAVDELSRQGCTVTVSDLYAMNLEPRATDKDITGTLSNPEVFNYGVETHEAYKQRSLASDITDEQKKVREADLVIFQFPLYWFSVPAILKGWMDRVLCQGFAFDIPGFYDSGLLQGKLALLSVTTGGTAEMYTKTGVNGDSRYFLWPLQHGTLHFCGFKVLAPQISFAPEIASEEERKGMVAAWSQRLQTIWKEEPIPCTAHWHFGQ
# Protocol: In this assay, dichlorophenolindophenol (DCPIP) was used as a substrate for NQO2. NRH (SI or EP0152R) was used as the co-substrate for the enzyme.
# The NQO2 enzyme assay was carried out using a […] GO spectrophotometer by measuring the absorbance of DCPIP at 600 nm. NRH [31] or EPR were used as co-substrates. The experiment was performed using a 96-well plate with a […] final volume using phosphate buffer (50 mM, pH 7.4). The final concentrations were DCPIP 40 µM and NRH or EPR 200 µM. The final enzyme concentration was 100 ng. The assay was performed at 37 °C and initiated through the addition of NQO2. The initial rates of the enzyme reactions were calculated from the curve by taking the initial slopes of the reactions using the formula (ΔAb/ΔTime). The assay of inhibitors was carried out using the same assay conditions. […] Each experiment was performed in triplicate. Rates were converted to the percentage of enzyme activity, and IC50 values were calculated using GraphPad Prism 7.03 software using the non-linear regression function. IC50 values were determined as a 50% decrease in NQO2 activity.
# NQO2 = conditions: read-out: dissociation constant; cited from earlier work
# [1] = inhibition of NQO2, DCPIP 40 µM, NRH or EPR 200 µM, phosphate buffer pH 7.4, 37 °C, triplicate, read-out: IC50 (µM) ± SD
# [2] = DCPIP substrate, NRH co-substrate, read-out: IC50 for inhibition of NQO2
Structure (SMILES),IC50 (recombinant human NQO2; [1]),melting point,IC50 (recombinant human NQO2; [2]),Kd (NQO2)
"COc1cc(-c2nc3ccc([N+](=O)[O-])cc3s2)cc(OC)c1OC [Compound 47, 6-Nitro-2-(3,4,5-trimethoxyphenyl)benzo[d]thiazole]",0.754 ± 0.008 µM,200 to 201 °C,–,–
"COc1cc(-c2nc3ccc(NC(C)=O)cc3s2)cc(OC)c1OC [Compound 49, N-(2-(3,4,5-Trimethoxyphenyl)benzo[d]thiazol-6-yl)acetamide]",0.031 ± 0.008 µM,208 to 209 °C,0.031 µM,–
"COc1cc(-c2nc3ccc(NC(=O)c4ccccc4)cc3s2)cc(OC)c1OC [Compound 50, N-(2-(3,4,5-Trimethoxyphenyl)benzo[d]thiazol-6-yl)benzamide]",3.17 ± 0.031 µM,205 to 207 °C,3.17 µM,–
"COc1cc(OC)cc(C(=O)Nc2ccc3nc(-c4cc(OC)c(OC)c(OC)c4)sc3c2)c1 [Compound 51, 3,5-Dimethoxy-N-(2-(3,4,5-trimethoxyphenyl)benzo[d]thiazol-6-yl)benzamide]",3.11 ± 0.03 µM,185 to 187 °C,–,–
"Oc1ccc2nc(-c3cc(O)c(O)c(O)c3)sc2c1 [Compound 52, 6-Hydroxy-2-(3,4,5-trihydroxyphenyl)benzo[d]thiazole]",0.2 ± 0.01 µM,240 to 242 °C,–,–
"COc1cccc(-c2nc3ccc(F)cc3s2)c1 [Compound 53, 6-Fluoro-2-(3-methoxyphenyl)benzo[d]thiazole]",0.908 ± 0.02 µM,103 to 105 °C,0.908 µM,–
"COc1ccc(-c2nc3ccc(F)cc3s2)cc1 [Compound 54, 6-Fluoro-2-(4-methoxyphenyl)benzo[d]thiazole]",> 100 µM,127 to 130 °C,> 100 µM,–
"Fc1cccc(-c2nc3ccc(F)cc3s2)c1 [Compound 55, 6-Fluoro-2-(3-fluorophenyl)benzo[d]thiazole]",52.55 ± 0.06 µM,111 to 112 °C,52.6 µM,–
"Oc1ccc(/C=C/c2cc(O)cc(O)c2)cc1 [Resveratrol, trans-3,4’,5-trihydroxystilbene]",–,–,–,35 nM

# Second part, led by results:
IC50 (recombinant human NQO2; [1]),melting point,IC50 (recombinant human NQO2; [2]),Structure (SMILES),Kd (NQO2)
0.773 ± 0.016 µM,173 to 174 °C,–,"COc1cc(-c2nc3ccc(Cl)cc3s2)cc(OC)c1OC [Compound 43, 6-Chloro-2-(3,4,5-trimethoxyphenyl)benzo[d]thiazole]",–
13.28 ± 0.02 µM,228 to 230 °C,13.3 µM,"COc1cc(-c2nc3ccc(C#N)cc3s2)cc(OC)c1OC [Compound 44, 2-(3,4,5-Trimethoxyphenyl)benzo[d]thiazole-6-carbonitrile]",–
0.717 ± 0.015 µM,156 to 158 °C,–,"COc1cc(-c2nc3ccc(F)cc3s2)cc(OC)c1OC [Compound 45, 6-Fluoro-2-(3,4,5-trimethoxyphenyl)benzo[d]thiazole]",–
0.079 ± 0.017 µM,212 to 215 °C,0.079 µM,"COc1cc(-c2nc3ccc(N)cc3s2)cc(OC)c1OC [Compound 48, 2-(3,4,5-Trimethoxyphenyl)benzo[d]thiazol-6-amine]",–
